The target of data set [1] is T1, hERG channel (Homo sapiens, UniProt Q12809).
T1 construct: purchased
Kind of data set: Predictor hERG fluorescence polarization (FP) binding assay. The protocol:
• a. Primary stock solutions of 3 mM CK and astemizole in 100% DMSO were diluted in 3-fold serial dilutions in the same solvent to obtain 16 different concentrations ranging from 3 mM to […]. These solutions were further diluted 25-fold with FP (fluorescence polarization) assay buffer and then transferred to the assay plate. • b. Each test solution in the assay plate was further diluted 4-fold with FP assay buffer. Predictor™ hERG membrane preparations were thawed at room temperature and sonicated. Predictor™ hERG Tracer Red (250 nM) was diluted to 4 nM with hERG FP assay buffer. All experiments were performed in FP assay buffer containing […].
• a. The FP assay was carried out using Predictor™ hERG Fluorescence Polarization Assay Kit. The binding assay was conducted following the manufacturer's recommended protocol with some modifications. Aliquots (5 μL) of each concentration of test article of reference were pipetted into the appropriate wells of a black 384-well micro-plate containing 10 μL of hERG membrane and 5 μL of 4 nM fluorescent tracer and covered with plate lid to protect the reagents exposed to from light. • b. The experiments were performed using triplicate wells for each concentration. Following a 3-hour incubation at room temperature, the microplates were read on a Tecan Infinite® F200 plate reader using polarized excitation filter setting at 535 nm and emission filter setting at 590 nm (25 and 20 nm bandwidths, respectively). Assay robustness was assessed by measuring 16 replicates positive control wells (containing 30 μM E-4031, known hERG channel blocker, in FP assay mixture) and negative control wells (no hERG channel blocker in FP assay mixture).
• a. To evaluate the robustness of the hERG assays, the signal-to-noise ratio was quantified by calculating Z′-factor for each assay. In statistics, the Z′-factor provides a way to evaluate the quality of the assay. […]. Z′-factor values were determined using the blank subtracted polarization values from 16 wells of • negative and positive controls using the formula of Zhang et al. […]

Data set [2] concerns the target T2, CYP1A2 (Homo sapiens, UniProt P05177).
T2 construct: with pooled human liver microsomes; from tissue; host or cells: pooled human liver microsomes
T2 sequence (P05177 1-516): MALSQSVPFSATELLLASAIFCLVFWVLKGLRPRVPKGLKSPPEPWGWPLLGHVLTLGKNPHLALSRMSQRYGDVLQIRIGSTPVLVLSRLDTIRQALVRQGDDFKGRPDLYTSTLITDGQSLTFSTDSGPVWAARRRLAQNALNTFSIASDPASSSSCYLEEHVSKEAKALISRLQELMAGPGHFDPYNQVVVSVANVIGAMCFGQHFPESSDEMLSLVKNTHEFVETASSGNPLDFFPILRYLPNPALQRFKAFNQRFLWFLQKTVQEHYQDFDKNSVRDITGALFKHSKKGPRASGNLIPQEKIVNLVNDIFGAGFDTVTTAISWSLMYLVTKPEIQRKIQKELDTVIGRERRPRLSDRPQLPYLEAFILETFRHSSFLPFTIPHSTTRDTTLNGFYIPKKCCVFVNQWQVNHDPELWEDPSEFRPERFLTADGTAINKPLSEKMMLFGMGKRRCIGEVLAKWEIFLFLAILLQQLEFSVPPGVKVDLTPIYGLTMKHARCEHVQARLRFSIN
Briefly: Cytochrome P450 inhibition in human liver microsomes using LC-MS/MS, CYP1A2. In kind it is in vitro ADME. As for the experimental part:
(§1) In IC50 shift experiments, CK (0.2 μL prepared in DMSO) was pre-incubated for 30 min at 37° C., at 8 different concentrations, with pooled human liver microsomes (0.1-1 mg/mL, depending on which enzyme was assessed) in the absence or presence of 1 mM NADPH in 100 μL of potassium phosphate buffer (100 mM, pH 7.4) and MgCl2 (2.5 mM). After the pre-incubation, a substrate mixture containing a probe substrate in 100 μL of potassium phosphate buffer (100 mM, pH 7.4), MgCl2 (2.5 mM), and NADPH (1 mM) was added for measurement of the corresponding P450 activities. Incubations were terminated by addition of 200 μL methanol. Samples were then extracted and centrifuged and the supernatant was subjected to validated LC-MS/MS analysis.
(Liver microsomes are a subcellular fraction often used to study metabolism.)

Data set [3] deals with T3, CYP2C8 (Homo sapiens, UniProt P10632).
T3 construct: with pooled human liver microsomes; from tissue; host or cells: pooled human liver microsomes
T3 sequence (P10632 1-490): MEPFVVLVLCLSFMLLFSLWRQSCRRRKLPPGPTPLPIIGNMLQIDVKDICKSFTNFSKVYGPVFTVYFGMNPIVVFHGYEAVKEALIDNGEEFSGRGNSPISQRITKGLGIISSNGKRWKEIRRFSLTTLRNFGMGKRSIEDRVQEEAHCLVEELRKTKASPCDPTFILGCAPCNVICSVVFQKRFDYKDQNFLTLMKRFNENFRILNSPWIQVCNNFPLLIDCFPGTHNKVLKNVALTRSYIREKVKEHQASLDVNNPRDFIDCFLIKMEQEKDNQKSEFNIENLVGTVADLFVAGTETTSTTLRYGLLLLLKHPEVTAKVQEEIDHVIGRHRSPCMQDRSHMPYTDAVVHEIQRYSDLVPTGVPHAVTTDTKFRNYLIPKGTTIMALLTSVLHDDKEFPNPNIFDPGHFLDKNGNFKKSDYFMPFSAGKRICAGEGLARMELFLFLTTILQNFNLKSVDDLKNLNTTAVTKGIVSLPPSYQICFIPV
Briefly: Cytochrome P450 inhibition in human liver microsomes using LC-MS/MS, CYP2C8. In kind it is in vitro ADME. As for the experimental part: as §1

Data set [4] deals with T4, CYP2C19 (Homo sapiens, UniProt P33261).
T4 construct: with pooled human liver microsomes; from tissue; host or cells: pooled human liver microsomes
T4 sequence (P33261 whole entry): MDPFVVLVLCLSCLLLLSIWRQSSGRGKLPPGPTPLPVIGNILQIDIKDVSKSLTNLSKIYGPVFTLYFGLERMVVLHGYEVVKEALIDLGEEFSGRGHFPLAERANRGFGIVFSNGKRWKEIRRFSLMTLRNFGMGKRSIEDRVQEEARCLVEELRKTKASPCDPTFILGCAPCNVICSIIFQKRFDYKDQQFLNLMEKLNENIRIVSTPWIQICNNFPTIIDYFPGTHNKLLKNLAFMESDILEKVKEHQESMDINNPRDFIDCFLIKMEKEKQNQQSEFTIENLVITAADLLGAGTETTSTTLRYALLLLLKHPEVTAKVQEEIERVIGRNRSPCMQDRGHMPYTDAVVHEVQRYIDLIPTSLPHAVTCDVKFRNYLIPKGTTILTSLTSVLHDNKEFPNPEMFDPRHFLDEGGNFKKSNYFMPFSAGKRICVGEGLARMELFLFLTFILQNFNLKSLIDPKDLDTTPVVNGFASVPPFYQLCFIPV
Kind of data set: Cytochrome P450 inhibition in human liver microsomes using LC-MS/MS, CYP2C19. In kind it is in vitro ADME. As for the experimental part:
as §1

Data set [5] is described as follows: Releasing kinetics of ginsenoside CK from two-layer coated balloon (CK DEB), FIG. 4. In kind it is physicochemical.
Setting [6] is: 50 μM, 30 min pre-incubation in the presence or absence of NADPH.

Each structure is given as a SMILES string.

T1 sequence (Q12809 whole entry): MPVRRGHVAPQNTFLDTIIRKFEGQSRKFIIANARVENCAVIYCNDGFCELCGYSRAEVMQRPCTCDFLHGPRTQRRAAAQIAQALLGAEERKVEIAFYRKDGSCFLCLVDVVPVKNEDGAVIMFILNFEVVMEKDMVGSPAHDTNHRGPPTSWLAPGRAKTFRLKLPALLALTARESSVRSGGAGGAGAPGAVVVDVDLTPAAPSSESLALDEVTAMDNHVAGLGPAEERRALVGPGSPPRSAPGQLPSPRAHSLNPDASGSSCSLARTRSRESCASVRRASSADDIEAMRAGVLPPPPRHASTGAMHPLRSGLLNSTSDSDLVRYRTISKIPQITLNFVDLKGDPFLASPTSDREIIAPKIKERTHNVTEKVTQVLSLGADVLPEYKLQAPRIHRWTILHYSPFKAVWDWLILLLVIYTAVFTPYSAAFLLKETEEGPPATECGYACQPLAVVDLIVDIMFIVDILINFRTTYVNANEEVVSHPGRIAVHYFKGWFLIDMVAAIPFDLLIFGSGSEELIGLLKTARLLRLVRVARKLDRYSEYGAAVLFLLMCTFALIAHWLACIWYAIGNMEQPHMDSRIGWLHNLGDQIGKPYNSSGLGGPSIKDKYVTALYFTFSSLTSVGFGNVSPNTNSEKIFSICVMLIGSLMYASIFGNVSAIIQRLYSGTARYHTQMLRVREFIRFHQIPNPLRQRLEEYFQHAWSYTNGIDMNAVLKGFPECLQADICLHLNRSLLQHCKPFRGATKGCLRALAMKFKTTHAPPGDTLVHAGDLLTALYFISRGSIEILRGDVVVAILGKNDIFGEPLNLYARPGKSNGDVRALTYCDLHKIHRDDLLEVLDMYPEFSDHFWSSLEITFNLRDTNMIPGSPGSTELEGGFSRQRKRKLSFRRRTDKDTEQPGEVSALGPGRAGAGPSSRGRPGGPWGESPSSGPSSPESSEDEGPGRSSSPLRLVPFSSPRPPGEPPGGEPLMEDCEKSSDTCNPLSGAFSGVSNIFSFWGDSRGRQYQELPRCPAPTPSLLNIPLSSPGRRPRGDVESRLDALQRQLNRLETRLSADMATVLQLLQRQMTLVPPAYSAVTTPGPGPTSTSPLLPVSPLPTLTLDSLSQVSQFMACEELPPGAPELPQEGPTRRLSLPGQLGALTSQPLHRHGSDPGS

Regarding `CC(C)=CCC[C@](C)(O[C@@H]1O[C@H](CO)[C@@H](O)[C@H](O)[C@H]1O)[C@H]1CC[C@]2(C)[C@@H]1[C@H](O)C[C@@H]1[C@@]3(C)CC[C@H](O)C(C)(C)[C@@H]3CC[C@]12C` [CK, Ginsenoside compound K], the “blocking effect for binding of tracer to the hERG membrane protein” value in data set [1] (at 30 μM, triplicate measurements) is “minor blocking effect”. Moreover, in data set [1] (classified from IC50), the “risk classification of potency for hERG blocker” value was “weak ligand”. In addition, the half-inhibitory concentration (IC50) in data set [1] (hERG FP assay, triplicate measurements) was more than 30 µM; in data set [2] (pooled human liver microsomes, substrate Phenacetin) it was more than 50 µM; in data set [3] (pooled human liver microsomes, substrate Amodiaquine), more than 50 µM; in data set [4] (pooled human liver microsomes, substrate S-Mephenytoin), more than 50 µM. The “inhibition at concentration of 50 μM” value in data set [2] (setting [6]), in data set [3] (setting [6]) and in data set [4] (setting [6]) was “did not inhibit” throughout. Moreover, in data set [5] (after 90 days of drug release), the “amount of residual drug” value is “beyond the detection/quantitation limit”. Also, the “drug released (initial burst)” value in data set [5] (within one month) is approximately 80%.

Usually IC50 stands for the point on the concentration scale where inhibition reaches its midpoint.

Values taken from US20260199564A1, “METHOD OF PREVENTING BLOOD COAGULATION AND DRUG-ELUTING IMPLANT FOR PERCUTANEOUS CORONARY INTERVENTION” (priority 2023, published 2026).
